Results published in patent publication US4616086A, “Piperazine-substituted aryl and aralkyl carboxylic acids useful for treating infirmaties caused by excess lipids or thrombocyte” (Boehringer Mannheim GmbH, priority 1981, dated 1986).
Where two headings read alike, the source gives them in different places.

What was measured:
[1] = system: cholesterol and triglyceride levels in the serum; assay: Lowering of Lipid Levels (cholesterol and triglyceride levels in the serum of male rats of normal metabolism, 7 days); format: in vivo; settings: 100 mg/kg/d for 7 days in methyl cellulose suspension, serum 3 hours after last dose, in comparison to control; for inhibition in vivo at 100 mg/kg/day: Rattus norvegicus, po
Description: In each case, 10 male rats of normal metabolism were administered the test substance for 7 days in a dosage of 100 mg/kg/d in methyl cellulose suspension. At the end of the experiment, 3 hours after the last does was administered, the cholesterol and triglyceride levels in the serum were determined. The changes are given in Table I expressed as a percentage in comparison to control for a representative selection of compounds.

thrombocyte aggregation = assay: Inhibition of Aggregation (Born test, adrenalin-induced thrombocyte aggregation, platelet-rich plasma); format: cell-based, human; settings: for % of inhibition of thrombocyte aggregation: human PRP, adrenalin 5×10^-6 mol/l, 2nd phase, test concentration 14^-4 mol/l [sic]
Description: Venous blood from subjects of normal metabolism is mixed with sodium citrate (9:1). The erythrocytes are settled by centrifugation at 150 g. The thrombocytes are concentrated in the supernatant. This supernatant is referred to as platelet-rich plasma (PRP). An aliquot of the PRP is placed in the cell of an aggregometer (Universal Aggregometer mfd. by Braun Melsungen) and there stirred by means of a small magnet. The substance to be tested is added in an aqueous solution (pH approx. 7). Changes in the light transmission in the suspension are continuously registered by a recorder. After spontaneous aggregation ends, aggregation is triggered by the addition of adrenalin (end concentration 5×10^-6 mol/l). Larger clumps of thrombocytes form and this causes the transmission of light through the suspension to increase.
The adrenalin-induced aggregation takes place in two phases, i.e., the light transmission first increases, then briefly remains steady, and then again increases. Only the second phase of the aggregation can be influenced by aggregation inhibitors.
With the same PRP, aggregation is induced with adrenalin after addition of the test substance and the course of the aggregation is registered with the recorder. The angle of the 2nd phase from the horizontal is again determined and the ratio of the two angles gives the percentage of inhibition of the 2nd phase of the thrombocyte aggregation.
All substances were tested in a concentration of 14^-4 mol/l in determining their aggregation inhibiting action.

[2] = read-out: % of reduction of cholesterol
[3] = read-out: % of reduction of triglycerides
[4] = Homo sapiens, read-out: inhibition of the 2nd phase of thrombocyte aggregation (standard)

SMILES: O=C(O)c1ccc(CCN2CCN(C(=O)c3ccc(Cl)cc3)CC2)cc1 [33 i]
- % of reduction of cholesterol [1]: 41%
- % of reduction of triglycerides [1]: 24%

SMILES: CC(CN1CCN(CCc2ccc(C(=O)O)cc2)CC1)Oc1ccc([N+](=O)[O-])cc1 (centres unmarked) [34 s]
- inhibition in vivo at 100 mg/kg/day [1, 2]: 47%
- inhibition in vivo at 100 mg/kg/day [1, 3]: 21%

SMILES: O=C(O)c1ccc(CCN2CCN(Cc3ccc(Cl)cc3)CC2)cc1 [33 b]
- % of inhibition of thrombocyte aggregation (thrombocyte aggregation): 19%
- inhibition in vivo at 100 mg/kg/day [1, 2]: 40%
- inhibition in vivo at 100 mg/kg/day [1, 3]: 30%

SMILES: CS(=O)(=O)N1CCN(CCc2ccc(C(=O)O)cc2)CC1 [33 m]
- inhibition in vivo at 100 mg/kg/day [1, 2]: 20%
- inhibition in vivo at 100 mg/kg/day [1, 3]: 30%

SMILES: O=C(O)c1ccc(N2CCN(CCCc3ccccc3)CC2)cc1 [13 i]
- inhibition in vivo at 100 mg/kg/day [1, 2]: 38%
- inhibition in vivo at 100 mg/kg/day [1, 3]: 15%

SMILES: CC(C)(C)c1cc(CCN2CCN(c3ccc(CC(=O)O)cc3)CC2)cc(C(C)(C)C)c1O [50 j]
- inhibition in vivo at 100 mg/kg/day [1, 2]: 40%
- inhibition in vivo at 100 mg/kg/day [1, 3]: 0%

SMILES: CC(=Cc1ccc(CCN2CCN(C(=O)c3ccc(Cl)cc3)CC2)cc1)C(=O)O [67 d1]
- inhibition in vivo at 100 mg/kg/day [1, 2]: 37%
- inhibition in vivo at 100 mg/kg/day [1, 3]: 9%

SMILES: COc1ccc(OC(C)CN2CCN(CCc3ccc(C(=O)O)cc3)CC2)cc1 (centres unmarked) [33 f]
- % of reduction of cholesterol [1]: 37%
- % of reduction of triglycerides [1]: 42%

SMILES: O=C(O)c1ccc(CCN2CCN(Cc3ccccc3Cl)CC2)cc1 [34 i]
- % of inhibition of thrombocyte aggregation (thrombocyte aggregation): 100%
- % of reduction of cholesterol [1]: 21%
- % of reduction of triglycerides [1]: 10%

SMILES: CCOC(=O)c1ccc(N2CCNCC2)cc1 [Example 1, Ethyl 4-(piperazin-1-yl)-benzoate]
- hygroscopicity (hydrochloride): hydroscopic

SMILES: O=C(O)Cc1ccc(CCN2CCN(S(=O)(=O)c3ccc(Cl)cc3)CC2)cc1 [49 e]
- inhibition in vivo at 100 mg/kg/day [1, 2]: 41%
- inhibition in vivo at 100 mg/kg/day [1, 3]: 8%

SMILES: CC(C)(C)c1cc(C=CC(=O)N2CCN(CCc3ccc(CC(=O)O)cc3)CC2)cc(C(C)(C)C)c1O [50 f]
- inhibition in vivo at 100 mg/kg/day [1, 2]: 40%
- inhibition in vivo at 100 mg/kg/day [1, 3]: 16%

SMILES: O=C(O)c1ccc(CCN2CCN(S(=O)(=O)c3ccc(Cl)cc3)CC2)cc1 [33 o]
- inhibition in vivo at 100 mg/kg/day [1, 2]: 35%
- inhibition in vivo at 100 mg/kg/day [1, 3]: 13%

SMILES: O=C(O)Cc1ccc(N2CCN(S(=O)(=O)c3ccccc3)CC2)cc1 [50 o]
- inhibition in vivo at 100 mg/kg/day [1, 2]: 26%
- inhibition in vivo at 100 mg/kg/day [1, 3]: 14%

SMILES: CC(=O)Oc1ccccc1C(=O)O [acetylsalicylic acid, reference compound]
- inhibition at 50 µM (thrombocyte aggregation; [4]): 0%
- inhibition at 100 µM (thrombocyte aggregation; [4]): 100%

SMILES: O=C(O)c1ccc(CCN2CCN(CC=Cc3ccc(Cl)cc3)CC2)cc1 [34 c]
- % of inhibition of thrombocyte aggregation (thrombocyte aggregation): 7%
- inhibition in vivo at 100 mg/kg/day [1, 2]: 30%
- inhibition in vivo at 100 mg/kg/day [1, 3]: 40%

SMILES: CC(Cc1ccc(Cl)cc1)CN1CCN(CCc2ccc(C(=O)O)cc2)CC1 (centres unmarked) [33 u]
- inhibition in vivo at 100 mg/kg/day [1, 2]: 28%
- inhibition in vivo at 100 mg/kg/day [1, 3]: 32%

SMILES: CC(CN1CCN(CCc2ccc(C(=O)O)cc2)CC1)Oc1ccccc1 (centres unmarked) [33 d]
- % of inhibition of thrombocyte aggregation (thrombocyte aggregation): 6%
- % of reduction of cholesterol [1]: 43%
- % of reduction of triglycerides [1]: 41%

SMILES: O=C(O)c1ccc(CCN2CCN(CC=Cc3ccc([N+](=O)[O-])cc3)CC2)cc1 [Example 34o, 4-{2-[1-(4-nitrocinnamyl)-piperazin-4-yl]-ethyl}-benzoic acid]
- light sensitivity: Light sensitive

SMILES: CC(C)(C)c1cc(CCC(=O)N2CCN(CCc3ccc(C(=O)O)cc3)CC2)cc(C(C)(C)C)c1O [33 l]
- % of reduction of cholesterol [1]: 38%
- % of reduction of triglycerides [1]: 22%

SMILES: CC(CN1CCN(c2ccc(C=CC(=O)O)cc2)CC1)Oc1ccccc1 (centres unmarked) [65 d1]
- inhibition in vivo at 100 mg/kg/day [1, 2]: 5%
- inhibition in vivo at 100 mg/kg/day [1, 3]: 20%

SMILES: O=C(O)c1ccc(CCN2CCN(c3ccc(Oc4ccccc4)cc3)CC2)cc1 [33 r]
- inhibition in vivo at 100 mg/kg/day [1, 2]: 33%
- inhibition in vivo at 100 mg/kg/day [1, 3]: 15%

SMILES: CCCCCCCCCCCCCCCCN1CCN(c2ccc(CCC(=O)O)cc2)CC1 [Example 58, 3-[4-(1-n-Hexadecylpiperazin-4-yl)-phenyl]-propionic acid]
- inhibition in vivo at 100 mg/kg/day [1, 2]: 17%
- inhibition in vivo at 100 mg/kg/day [1, 3]: 6%

SMILES: O=C(O)Cc1ccc(CCN2CCN(S(=O)(=O)c3ccccc3)CC2)cc1 [50 g]
- inhibition in vivo at 100 mg/kg/day [1, 2]: 28%
- inhibition in vivo at 100 mg/kg/day [1, 3]: 9%

SMILES: O=C(O)c1ccc(CCN2CCN(CCOc3ccccc3)CC2)cc1 [33 c]
- % of inhibition of thrombocyte aggregation (thrombocyte aggregation): 40%
- inhibition in vivo at 100 mg/kg/day [1, 2]: 13%
- inhibition in vivo at 100 mg/kg/day [1, 3]: 11%

SMILES: CCOC(=O)c1ccc(CCCN2CCN(C(=O)c3ccc(Cl)cc3)CC2)cc1 [55 b]
- inhibition in vivo at 100 mg/kg/day [1, 2]: 33%
- inhibition in vivo at 100 mg/kg/day [1, 3]: 3%

SMILES: CCCCOC(=O)CCc1ccc(N2CCN(C(=O)C=Cc3ccc(Cl)cc3)CC2)cc1 [Example 55, n-Butyl 3-{4-[1-(4-chlorocinnamoyl)-piperazin-4-yl]-phenyl}-propionate]
- light sensitivity: light-sensitive
